Laboratory results published in PubChem BioAssay (NCI).
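All cell lines were grown in 96-well plates and treated with compound for 48 hours. TGI denotes the concentration required for complete inhibition of growth.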

What was measured:
Experiment in all cases: growth of human tumour cells (NCI), 48 h
U251 CNS = tested on: U251 CNS
RPMI-8226 leukemia = tested on: RPMI-8226 leukemia
LOX IMVI melanoma = tested on: LOX IMVI melanoma
K-562 leukemia = tested on: K-562 leukemia
SR leukemia = tested on: SR leukemia
CCRF-CEM leukemia = tested on: CCRF-CEM leukemia
OVCAR-8 ovarian = tested on: OVCAR-8 ovarian
LXFL 529 NSCLC = tested on: LXFL 529 NSCLC
NCI-H460 lung = tested on: NCI-H460 lung
HCC-2998 colon = tested on: HCC-2998 colon
SK-MEL-2 melanoma = tested on: SK-MEL-2 melanoma
RXF-631 renal = tested on: RXF-631 renal
SF-268 CNS = tested on: SF-268 CNS
OVCAR-5 ovarian = tested on: OVCAR-5 ovarian
SNB-75 CNS = tested on: SNB-75 CNS
A498 renal = tested on: A498 renal
IGROV1 ovarian = tested on: IGROV1 ovarian
SF-295 CNS = tested on: SF-295 CNS
UO-31 renal = tested on: UO-31 renal
SK-MEL-5 melanoma = tested on: SK-MEL-5 melanoma
NCI-H226 lung = tested on: NCI-H226 lung
A549 NSCLC = tested on: A549 NSCLC
M19-MEL melanoma = tested on: M19-MEL melanoma
HOP-62 NSCLC = tested on: HOP-62 NSCLC
COLO 205 colon = tested on: COLO 205 colon
NCI-H23 lung = tested on: NCI-H23 lung
SK-OV-3 ovarian = tested on: SK-OV-3 ovarian
SW-620 colon = tested on: SW-620 colon
NCI-H522 lung = tested on: NCI-H522 lung
SNB-78 CNS = tested on: SNB-78 CNS
SK-MEL-28 melanoma = tested on: SK-MEL-28 melanoma
HOP-18 NSCLC = tested on: HOP-18 NSCLC
HOP-92 NSCLC = tested on: HOP-92 NSCLC
EKVX NSCLC = tested on: EKVX NSCLC
MOLT-4 leukemia = tested on: MOLT-4 leukemia
ACHN renal = tested on: ACHN renal
SF-539 CNS = tested on: SF-539 CNS
DLD-1 colon = tested on: DLD-1 colon
MALME-3M melanoma = tested on: MALME-3M melanoma
786-0 renal = tested on: 786-0 renal
OVCAR-4 ovarian = tested on: OVCAR-4 ovarian
M14 melanoma = tested on: M14 melanoma
UACC-257 melanoma = tested on: UACC-257 melanoma
KM12 colon = tested on: KM12 colon
SN12C renal = tested on: SN12C renal
HL-60(TB) leukemia = tested on: HL-60(TB) leukemia
HT29 colon = tested on: HT29 colon
HCT-116 colon = tested on: HCT-116 colon
CAKI-1 renal = tested on: CAKI-1 renal
TK-10 renal = tested on: TK-10 renal
DMS 114 small cell lung = tested on: DMS 114 small cell lung
UACC-62 melanoma = tested on: UACC-62 melanoma
HCT-15 colon = tested on: HCT-15 colon
OVCAR-3 ovarian = tested on: OVCAR-3 ovarian
SNB-19 CNS = tested on: SNB-19 CNS
KM20L2 colon = tested on: KM20L2 colon
DMS 273 small cell lung = tested on: DMS 273 small cell lung
RXF 393 renal = tested on: RXF 393 renal
BT-549 breast = tested on: BT-549 breast
XF 498 CNS = tested on: XF 498 CNS
MCF7 breast = tested on: MCF7 breast
PC-3 prostate = tested on: PC-3 prostate
MDA-N = tested on: MDA-N
MDA-MB-435 = tested on: MDA-MB-435
NCI/ADR-RES ovarian = tested on: NCI/ADR-RES ovarian
MDA-MB-231 breast = tested on: MDA-MB-231 breast
DU-145 prostate = tested on: DU-145 prostate

## O=C(/C(=C/c1ccc(O)cc1)c1ccccc1)c1ccccc1
U251 CNS
  TGI: 29.7 µM
RPMI-8226 leukemia
  TGI: 42.3 µM
LOX IMVI melanoma
  TGI: 25.9 µM
K-562 leukemia
  TGI: 44.4 µM
SR leukemia
  TGI: 61.2 µM
CCRF-CEM leukemia
  TGI: 80.2 µM
OVCAR-8 ovarian
  TGI: 60 µM
LXFL 529 NSCLC
  TGI: 35.7 µM
NCI-H460 lung
  TGI: 38.4 µM
HCC-2998 colon
  TGI: 32 µM
SK-MEL-2 melanoma
  TGI: 24.1 µM
RXF-631 renal
  TGI: 29.3 µM
SF-268 CNS
  TGI: 34.6 µM
OVCAR-5 ovarian
  TGI: 32 µM
SNB-75 CNS
  TGI: 42.5 µM
A498 renal
  TGI: 32 µM
IGROV1 ovarian
  TGI: 38.3 µM
SF-295 CNS
  TGI: 33.4 µM
UO-31 renal
  TGI: 29.4 µM
SK-MEL-5 melanoma
  TGI: 28.3 µM
NCI-H226 lung
  TGI: 30.8 µM
A549 NSCLC
  TGI: 41.7 µM
M19-MEL melanoma
  TGI: 32.4 µM
HOP-62 NSCLC
  TGI: 33.9 µM
COLO 205 colon
  TGI: 32.8 µM
NCI-H23 lung
  TGI: 30.7 µM
SK-OV-3 ovarian
  TGI: 40.2 µM
SW-620 colon
  TGI: 32 µM
NCI-H522 lung
  TGI: 28.7 µM
SNB-78 CNS
  TGI: 70.9 µM
SK-MEL-28 melanoma
  TGI: 31.9 µM
HOP-18 NSCLC
  TGI: 33.4 µM
HOP-92 NSCLC
  TGI: 18.3 µM
EKVX NSCLC
  TGI: 45.8 µM
MOLT-4 leukemia
  TGI: 37.3 µM
ACHN renal
  TGI: 29.6 µM
SF-539 CNS
  TGI: 30.3 µM
DLD-1 colon
  TGI: 31 µM
MALME-3M melanoma
  TGI: 37.1 µM
786-0 renal
  TGI: 34.5 µM
OVCAR-4 ovarian
  TGI: 55.2 µM
M14 melanoma
  TGI: 30.9 µM
UACC-257 melanoma
  TGI: 32.9 µM
KM12 colon
  TGI: 29.1 µM
SN12C renal
  TGI: 32.5 µM
HL-60(TB) leukemia
  TGI: 31.6 µM
HT29 colon
  TGI: 32.1 µM
HCT-116 colon
  TGI: 31.5 µM
CAKI-1 renal
  TGI: 38.2 µM
TK-10 renal
  TGI: 48.5 µM
DMS 114 small cell lung
  TGI: 24.4 µM
UACC-62 melanoma
  TGI: 27.1 µM
HCT-15 colon
  TGI: 31.9 µM

## CCCCCCCCCCCCCCCC(=O)OCC1OC(n2cc(F)c(=O)[nH]c2=O)C(NC(=O)N(CCCl)N=O)C(O)C1O (stereo not given)
U251 CNS
  TGI: 3.74 µM
RPMI-8226 leukemia
  TGI: 20.5 µM
LOX IMVI melanoma
  TGI: 2.24 µM
K-562 leukemia
  TGI: 25.6 µM
SR leukemia
  TGI: 5.8 µM
CCRF-CEM leukemia
  TGI: 6.58 µM
OVCAR-8 ovarian
  TGI: 9.69 µM
LXFL 529 NSCLC
  TGI: 15.8 µM
NCI-H460 lung
  TGI: 4.81 µM
HCC-2998 colon
  TGI: 11.3 µM
SK-MEL-2 melanoma
  TGI: 3.3 µM
RXF-631 renal
  TGI: 17.9 µM
SF-268 CNS
  TGI: 2.83 µM
OVCAR-5 ovarian
  TGI: 25.9 µM
SNB-75 CNS
  TGI: 1.56 µM
A498 renal
  TGI: 10.1 µM
IGROV1 ovarian
  TGI: 18.1 µM
SF-295 CNS
  TGI: 6.03 µM
UO-31 renal
  TGI: 29.6 µM
SK-MEL-5 melanoma
  TGI: 9.8 µM
NCI-H226 lung
  TGI: 24 µM
A549 NSCLC
  TGI: 7.14 µM
OVCAR-3 ovarian
  TGI: 20.9 µM
M19-MEL melanoma
  TGI: 9.91 µM
HOP-62 NSCLC
  TGI: 2.34 µM
COLO 205 colon
  TGI: 9.51 µM
NCI-H23 lung
  TGI: 2.84 µM
SK-OV-3 ovarian
  TGI: 14.3 µM
SW-620 colon
  TGI: 6.58 µM
NCI-H522 lung
  TGI: 10 µM
SNB-78 CNS
  TGI: 18.1 µM
SK-MEL-28 melanoma
  TGI: 7.96 µM
HOP-18 NSCLC
  TGI: 33.3 µM
HOP-92 NSCLC
  TGI: 11.6 µM
EKVX NSCLC
  TGI: 7.18 µM
MOLT-4 leukemia
  TGI: > 39.9 µM
ACHN renal
  TGI: 10.9 µM
SNB-19 CNS
  TGI: 8.71 µM
SF-539 CNS
  TGI: 1.36 µM
DLD-1 colon
  TGI: 12.5 µM
MALME-3M melanoma
  TGI: 10.1 µM
786-0 renal
  TGI: 3.59 µM
KM20L2 colon
  TGI: 18.4 µM
OVCAR-4 ovarian
  TGI: 20.5 µM
M14 melanoma
  TGI: 11.7 µM
DMS 273 small cell lung
  TGI: 4.3 µM
UACC-257 melanoma
  TGI: 17.8 µM
KM12 colon
  TGI: 4.91 µM
SN12C renal
  TGI: 15.6 µM
HL-60(TB) leukemia
  TGI: 7.69 µM
HT29 colon
  TGI: 14.1 µM
RXF 393 renal
  TGI: 8.37 µM
HCT-116 colon
  TGI: 3.07 µM
CAKI-1 renal
  TGI: 20.5 µM
TK-10 renal
  TGI: 26.1 µM
DMS 114 small cell lung
  TGI: 5.02 µM
UACC-62 melanoma
  TGI: 1.17 µM
HCT-15 colon
  TGI: 15.1 µM

## CN(C)c1ccc(N=C2C=CC(=C(C#N)C#N)c3ccccc32)cc1
BT-549 breast
  TGI: 5.12 µM
U251 CNS
  TGI: 6.53 µM
RPMI-8226 leukemia
  TGI: 11.6 µM
LOX IMVI melanoma
  TGI: 3.49 µM
K-562 leukemia
  TGI: 5.71 µM
SR leukemia
  TGI: 48.1 µM
CCRF-CEM leukemia
  TGI: 3.46 µM
OVCAR-8 ovarian
  TGI: 1.75 µM
NCI-H460 lung
  TGI: 7.08 µM
HCC-2998 colon
  TGI: 0.63 µM
SK-MEL-2 melanoma
  TGI: 6.7 µM
SF-268 CNS
  TGI: 8.1 µM
OVCAR-5 ovarian
  TGI: 10.6 µM
SNB-75 CNS
  TGI: 5.71 µM
A498 renal
  TGI: 1.37 µM
XF 498 CNS
  TGI: 1.65 µM
IGROV1 ovarian
  TGI: 6.11 µM
SF-295 CNS
  TGI: 14.9 µM
UO-31 renal
  TGI: 14.2 µM
MCF7 breast
  TGI: 7.51 µM
SK-MEL-5 melanoma
  TGI: 0.713 µM
NCI-H226 lung
  TGI: 0.741 µM
PC-3 prostate
  TGI: 10.8 µM
A549 NSCLC
  TGI: 13.7 µM
OVCAR-3 ovarian
  TGI: 1.46 µM
M19-MEL melanoma
  TGI: 5.8 µM
MDA-N
  TGI: 0.441 µM
HOP-62 NSCLC
  TGI: 15.3 µM
COLO 205 colon
  TGI: 0.199 µM
NCI-H23 lung
  TGI: 4.19 µM
SK-OV-3 ovarian
  TGI: 6.53 µM
MDA-MB-435
  TGI: 0.191 µM
SW-620 colon
  TGI: 3.65 µM
NCI-H522 lung
  TGI: 0.305 µM
SNB-78 CNS
  TGI: 16.7 µM
SK-MEL-28 melanoma
  TGI: 20.5 µM
HOP-18 NSCLC
  TGI: 16.3 µM
HOP-92 NSCLC
  TGI: 1.06 µM
EKVX NSCLC
  TGI: 19.1 µM
MOLT-4 leukemia
  TGI: 8.04 µM
ACHN renal
  TGI: 10.6 µM
SNB-19 CNS
  TGI: 12.7 µM
SF-539 CNS
  TGI: 0.576 µM
DLD-1 colon
  TGI: 16.1 µM
MALME-3M melanoma
  TGI: 17.1 µM
786-0 renal
  TGI: 11.4 µM
OVCAR-4 ovarian
  TGI: 6.13 µM
M14 melanoma
  TGI: 8.79 µM
DMS 273 small cell lung
  TGI: 12.6 µM
UACC-257 melanoma
  TGI: 10.9 µM
KM12 colon
  TGI: 12 µM
NCI/ADR-RES ovarian
  TGI: 2.34 µM
SN12C renal
  TGI: 15.9 µM
HL-60(TB) leukemia
  TGI: 0.391 µM
HT29 colon
  TGI: 10.4 µM
RXF 393 renal
  TGI: 8.6 µM
MDA-MB-231 breast
  TGI: 2.66 µM
DU-145 prostate
  TGI: 3.34 µM
HCT-116 colon
  TGI: 5.26 µM
CAKI-1 renal
  TGI: 12.7 µM
TK-10 renal
  TGI: 16.4 µM
DMS 114 small cell lung
  TGI: 0.666 µM
UACC-62 melanoma
  TGI: 3.32 µM
HCT-15 colon
  TGI: 4.72 µM
